Target: APP (amyloid precursor protein) (Homo sapiens, UniProt P05067)
Test: SPR
Assay type: binding

Chain of APP (amyloid precursor protein) (P05067 230-624 isoform P05067-4): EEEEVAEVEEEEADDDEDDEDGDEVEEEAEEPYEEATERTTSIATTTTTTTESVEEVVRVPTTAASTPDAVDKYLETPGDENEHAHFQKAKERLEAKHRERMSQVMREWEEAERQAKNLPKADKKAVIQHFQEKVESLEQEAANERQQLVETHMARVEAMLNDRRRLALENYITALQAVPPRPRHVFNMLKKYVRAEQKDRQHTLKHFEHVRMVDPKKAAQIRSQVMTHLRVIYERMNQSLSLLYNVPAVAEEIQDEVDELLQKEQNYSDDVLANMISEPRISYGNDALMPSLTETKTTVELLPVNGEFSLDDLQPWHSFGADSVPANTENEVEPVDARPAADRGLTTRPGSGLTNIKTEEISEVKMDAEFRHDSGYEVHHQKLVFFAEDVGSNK

CN1[C@@H]2CC[C@H]1C[C@@H](OC(=O)c1c[nH]c3ccccc13)C2 [tropisetron]
Kd: 900 nM
